Patent publication US9670227B2, “Thienopyrimidine derivatives, a process for their preparation and pharmaceutical compositions containing them” (LES LABORATOIRES SERVIER, priority 2013, dated 2017)
Like-named read-outs stand apart in the source and are kept apart here.

Tests used:
[1] = biological target: Mcl-1 protein (UniProtKB primary accession number: Q07820) (Homo sapiens, UniProt Q07820); assay: Inhibition of Mcl-1 by fluorescence polarisation, Method 1; format: binding; settings: read-out: IC50 (M) Mcl-1 FP
Chain of Mcl-1 protein (Q07820 whole entry): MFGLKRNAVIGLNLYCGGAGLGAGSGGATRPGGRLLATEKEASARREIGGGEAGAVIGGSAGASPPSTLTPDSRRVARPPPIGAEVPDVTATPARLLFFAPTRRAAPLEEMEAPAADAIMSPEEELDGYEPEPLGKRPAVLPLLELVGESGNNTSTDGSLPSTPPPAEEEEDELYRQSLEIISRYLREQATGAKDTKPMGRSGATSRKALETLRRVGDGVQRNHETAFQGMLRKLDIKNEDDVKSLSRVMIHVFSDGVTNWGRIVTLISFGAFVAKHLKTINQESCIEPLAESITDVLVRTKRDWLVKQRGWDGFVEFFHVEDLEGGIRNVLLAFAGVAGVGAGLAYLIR
In short: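 Fluorescence polarisation competition with an 11-point compound dilution series (final DMSO 5%). Mcl-1 protein at 5 nM and fluorescein-labelled ligand at 1 nM (final) in 10 mM HEPES, 150 mM NaCl, 0.05% Tween 20, pH 7.4.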

[2] = test system: H929 multiple myeloma tumour line; assay: In vitro cytotoxicity, Microculture Tetrazolium Assay; format: cell-based; settings: H929 cells, 48 hours exposure, MTT, read-out: IC50 (μM) MTT H929
Procedure: The cytotoxicity studies were carried out on the H929 multiple myeloma tumour line.
The cells are distributed onto microplates and exposed to the test compounds for 48 hours.

[3] = fluorescence polarisation, Method 1, or Method 2
[4] = fluorescence polarisation test, Method 2 values are underlined in the patent (underlining not visible here)

Row | IC50 [1, 3] [M] | IC50 [1, 4] [M] | Structure (SMILES) | IC50 ([2]; Homo sapiens, NCI-H929, 48 h) [µM] | IC50 [2] [µM]
1 | 1.9e-09 | – | CC#Cc1sc2ncnc(OC(Cc3ccccc3OCc3ccnc(OC)n3)C(=O)O)c2c1-c1ccc(OCCN2CCN(C)CC2)c(Cl)c1C [Example 486, (2R)-2-{[(5Sa)-5-{3-chloro-2-methyl-4-[2-(4-methylpiperazin-1-yl)ethoxy]phenyl}-6-(prop-1-yn-1-yl)thieno[2,3-d]pyrimidin-4-yl]oxy}-3-{2-[(2-methoxypyrimidin-4-yl)methoxy]phenyl}propanoic acid] | 0.146 | –
2 | 9.48e-10 | – | Cc1cc(-c2nccc(COc3ccccc3CC(Oc3ncnc4sc(-c5ccc(F)cc5)c(-c5ccc(OCCN(C)C)c(Cl)c5C)c34)C(=O)O)n2)c(C)cn1 [Example 751, (2R)-2-{[(5Sa)-5-{3-chloro-4-[2-(dimethylamino)ethoxy]-2-methylphenyl}-6-(4-fluorophenyl)thieno[2,3-d]pyrimidin-4-yl]oxy}-3-(2-{[2-(2,5-dimethylpyridin-4-yl)pyrimidin-4-yl]methoxy}phenyl)propanoic acid] | 0.008 | –
3 | – | 1.4e-08 | COc1ccccc1CC(Oc1ncnc2sc(-c3ccco3)c(-c3ccc(OC4CCNC4)c(Cl)c3C)c12)C(=O)O (single isomer, unassigned) [Example 306, (2R)-2-({(5Sa)-5-[3-chloro-2-methyl-4-((3R or S)-pyrrolidin-3-yloxy)phenyl]-6-(furan-2-yl)thieno[2,3-d]pyrimidin-4-yl}oxy)-3-(2-methoxyphenyl)propanoic acid] | – | 1.12
4 | 1.8e-08 | – | Cc1c(-c2c(-c3ccc(F)cc3)sc3ncnc(OC(Cc4ccccc4OCC(F)(F)F)C(=O)O)c23)ccc(OCC2CCCN2C)c1Cl (single isomer, unassigned) [Example 658, (2R)-2-{[(5Sa)-5-{3-chloro-2-methyl-4-[((2S or R)-1-methylpyrrolidin-2-yl)methoxy]phenyl}-6-(4-fluorophenyl)thieno[2,3-d]pyrimidin-4-yl]oxy}-3-[2-(2,2,2-trifluoroethoxy)phenyl]propanoic acid] | 1.71 | –
5 | – | 7e-09 | Cc1c(-c2c(-c3ccc(F)cc3)sc3ncnc(OC(Cc4ccccc4OCc4ccnn4CCN(C)C)C(=O)O)c23)ccc(OCCN2CCN(C)CC2)c1Cl [Example 87, (2R)-2-{[(5Sa)-5-{3-chloro-2-methyl-4-[2-(4-methylpiperazin-1-yl)ethoxy]phenyl}-6-(4-fluorophenyl)thieno[2,3-d]pyrimidin-4-yl]oxy}-3-[2-({1-[2-(dimethylamino)ethyl]-1H-pyrazol-5-yl}methoxy)phenyl]propanoic acid] | 0.274 | –
6 | – | 3.3e-09 | COc1ccc(-c2nccc(COc3ccccc3CC(Oc3ncnc4sc(-c5ccc(F)cc5)c(-c5ccc(OCCN6CCN(C)CC6)c(Cl)c5C)c34)C(=O)O)n2)cn1 [Example 111, (2R)-2-{[(5Sa)-5-{3-chloro-2-methyl-4-[2-(4-methylpiperazin-1-yl)ethoxy]phenyl}-6-(4-fluorophenyl)thieno[2,3-d]pyrimidin-4-yl]oxy}-3-(2-{[2-(6-methoxypyridin-3-yl)pyrimidin-4-yl]methoxy}phenyl)propanoic acid] | 0.008 | –
7 | – | 4e-09 | Cc1c(-c2c(-c3ccc(F)cc3)sc3ncnc(OC(Cc4ccccc4OCc4ccnc(-c5ccncc5)n4)C(=O)O)c23)ccc(OCCN(C)C)c1Cl [Example 128, (2R)-2-{[(5Sa)-5-{3-chloro-4-[2-(dimethylamino)ethoxy]-2-methylphenyl}-6-(4-fluorophenyl)thieno[2,3-d]pyrimidin-4-yl]oxy}-3-(2-{[2-(pyridin-4-yl)pyrimidin-4-yl]methoxy}phenyl)propanoic acid] | 0.018 | –
8 | – | 8.5e-09 | C#CCOc1ccccc1CC(Oc1ncnc2sc(-c3ccco3)c(-c3ccc(OCCN4CCN(C)CC4)c(Cl)c3C)c12)C(=O)O [Example 216, (2R)-2-{[(5Sa)-5-{3-chloro-2-methyl-4-[2-(4-methylpiperazin-1-yl)ethoxy]phenyl}-6-(furan-2-yl)thieno[2,3-d]pyrimidin-4-yl]oxy}-3-[2-(prop-2-yn-1-yloxy)phenyl]propanoic acid] | 0.217 | –
9 | – | 2.9e-09 | Cc1ncccc1-c1nccc(COc2ccccc2CC(Oc2ncnc3sc(-c4ccc(F)cc4)c(-c4ccc(OCCN5CCN(C)CC5)c(Cl)c4C)c23)C(=O)O)n1 [Example 116, (2R)-2-{[(5Sa)-5-{3-chloro-2-methyl-4-[2-(4-methylpiperazin-1-yl)ethoxy]phenyl}-6-(4-fluorophenyl)thieno[2,3-d]pyrimidin-4-yl]oxy}-3-(2-{[2-(2-methylpyridin-3-yl)pyrimidin-4-yl]methoxy}phenyl)propanoic acid] | 0.007 | –
10 | – | 2.7e-08 | COc1cccc(CC(Oc2ncnc3sc(-c4ccco4)c(-c4ccc(OCCN5CCN(C)CC5)c(Cl)c4C)c23)C(=O)O)c1 [Example 349, (2R)-2-{[(5Sa)-5-{3-chloro-2-methyl-4-[2-(4-methylpiperazin-1-yl)ethoxy]phenyl}-6-(furan-2-yl)thieno[2,3-d]pyrimidin-4-yl]oxy}-3-(3-methoxyphenyl)propanoic acid] | 2.46 | –
11 | – | 1e-08 | COc1ccccc1CC(Oc1ncnc2sc(-c3ccco3)c(-c3ccc(OCC4CCCCN4C)c(Cl)c3C)c12)C(=O)O (single isomer, unassigned) [Example 309, (2R)-2-{[(5Sa)-5-{3-chloro-2-methyl-4-[((2S or R)-1-methylpiperidin-2-yl)methoxy]phenyl}-6-(furan-2-yl)thieno[2,3-d]pyrimidin-4-yl]oxy}-3-(2-methoxyphenyl)propanoic acid] | 1.48 | –
12 | – | 3.8e-09 | Cc1cncc(-c2nccc(COc3ccccc3CC(Oc3ncnc4sc(-c5ccc(F)cc5)c(-c5ccc(OCCN6CCN(C)CC6)c(Cl)c5C)c34)C(=O)O)n2)c1 [Example 122, (2R)-2-{[(5Sa)-5-{3-chloro-2-methyl-4-[2-(4-methylpiperazin-1-yl)ethoxy]phenyl}-6-(4-fluorophenyl)thieno[2,3-d]pyrimidin-4-yl]oxy}-3-(2-{[2-(5-methylpyridin-3-yl)pyrimidin-4-yl]methoxy}phenyl)propanoic acid] | 0.01 | –
13 | – | 6e-09 | CCc1nccc(COc2ccccc2CC(Oc2ncnc3sc(-c4ccc(F)cc4)c(-c4ccc(OCCN5CCN(C)CC5)c(Cl)c4C)c23)C(=O)O)n1 [Example 37, (2R)-2-{[(5Sa)-5-{3-chloro-2-methyl-4-[2-(4-methylpiperazin-1-yl)ethoxy]phenyl}-6-(4-fluorophenyl)thieno[2,3-d]pyrimidin-4-yl]oxy}-3-{2-[(2-ethylpyrimidin-4-yl)methoxy]phenyl}propanoic acid] | 0.014 | –
14 | – | 1.1e-08 | COc1ccccc1CC(Oc1ncnc2sc(-c3ccco3)c(-c3ccc(OC4CCN(C)CC4)c(Cl)c3C)c12)C(=O)O [Example 304, (2R)-2-{[(5Sa)-5-{3-chloro-2-methyl-4-[(1-methylpiperidin-4-yl)oxy]phenyl}-6-(furan-2-yl)thieno[2,3-d]pyrimidin-4-yl]oxy}-3-(2-methoxyphenyl)propanoic acid] | 1.7 | –
15 | 8e-10 | – | CCCCn1nccc1COc1ccccc1CC(Oc1ncnc2sc(C(F)(F)F)c(-c3ccc(OCCN4CCN(C)CC4)c(Cl)c3C)c12)C(=O)O [Example 615, (2R)-3-{2-[(1-butyl-1H-pyrazol-5-yl)methoxy]phenyl}-2-{[(5Sa)-5-{3-chloro-2-methyl-4-[2-(4-methylpiperazin-1-yl)ethoxy]phenyl}-6-(trifluoromethyl)thieno[2,3-d]pyrimidin-4-yl]oxy}propanoic acid] | 0.292 | –
16 | – | 1.2e-08 | COCCOCCOc1ccccc1CC(Oc1ncnc2sc(-c3ccc(F)cc3)c(-c3ccc(OCCN4CCN(C)CC4)c(Cl)c3C)c12)C(=O)O [Example 105, (2R)-2-{[(5Sa)-5-{3-chloro-2-methyl-4-[2-(4-methylpiperazin-1-yl)ethoxy]phenyl}-6-(4-fluorophenyl)thieno[2,3-d]pyrimidin-4-yl]oxy}-3-{2-[2-(2-methoxyethoxy)ethoxy]phenyl}propanoic acid] | 0.251 | –
17 | 1.1e-07 | – | CCc1sc2ncnc(OC(Cc3ccccc3)C(=O)O)c2c1-c1ccc(OCCN(C)C)c(Cl)c1C [Example 407, (2R)-2-[((5Sa)-5-{3-chloro-4-[2-(dimethylamino)ethoxy]-2-methylphenyl}-6-ethylthieno[2,3-d]pyrimidin-4-yl)oxy]-3-phenylpropanoic acid] | 7.33 | –
18 | 5.7e-09 | – | CCCCn1nccc1COc1ccccc1CC(Oc1ncnc2sc(-c3ccc(OCC)cc3)c(-c3ccc(OCCN4CCN(C)CC4)c(Cl)c3C)c12)C(=O)O [Example 604, (2R)-3-{2-[(1-butyl-1H-pyrazol-5-yl)methoxy]phenyl}-2-{[(5Sa)-5-{3-chloro-2-methyl-4-[2-(4-methylpiperazin-1-yl)ethoxy]phenyl}-6-(4-ethoxyphenyl)thieno[2,3-d]pyrimidin-4-yl]oxy}propanoic acid] | 0.064 | –
19 | – | 2.2e-08 | Cc1c(-c2c(-c3ccc(F)cc3)sc3ncnc(OC(Cc4ccccc4OCc4cnccn4)C(=O)O)c23)ccc(OCC2CCN(C)C2)c1Cl [Example 140, (2R)-2-{[(5Sa)-5-(3-chloro-2-methyl-4-{[(3S)-1-methylpyrrolidin-3-yl]methoxy}phenyl)-6-(4-fluorophenyl)thieno[2,3-d]pyrimidin-4-yl]oxy}-3-[2-(pyrazin-2-ylmethoxy)phenyl]propanoic acid] | – | 0.205
